Source: publication PMC10089289, “Well-Defined Heparin Mimetics Can Inhibit Binding of the Trimeric Spike of SARS-CoV-2 in a Length-Dependent Manner” (JACS Au, 2023)

Legend:
[1] = tested on: Vero E6 cells; details: 100 μg/mL; 24 h incubation
[2] = target: T1, Factor-IIa (thrombin) (Homo sapiens, UniProt P00734); experiment: AT-III mediated Factor-IIa inhibition assay (Biophen Anti-IIa, two-stage chromogenic); type: biochemical; details: colorimetric, Biophen Anti-IIa kit
T1 construct: purchased BIOPHEN ANTI-IIa (2 Stages Heparin Assay) kit
Protocol: (§1) To validate the SPR results, AT-III-mediated anti-Factor-Xa and anti-Factor-IIa activities of the mimetics and UFH were measured using a colorimetric assay (Biophen Anti-Xa and Anti-IIa kits, two-stage chromogenic assays) (Figures 6B and S16–S17).
(§2) AT-III mediated Factor-IIa inhibition assays: Anti-Factor IIa activity of mimetics (1 and 6) and UFH was determined by BIOPHENÔ ANTI-IIa (2 Stages Heparin Assay) kit following manufacturer’s instructions. Human antithrombin (AT-III), purified human thrombin (Factor IIa) and thrombin specific chromogenic substrate [CS-01(38)] were reconstituted and prepared in specific buffers in accordance with kit protocol. […] After exactly 2 min, the reaction was stopped by introducing citric acid (2 wt.%, 80 µL), mixed and absorbance at 405 nm (POLARstar Optima, BMG Labtech) against the corresponding blank was measured. […] Measured blank value were subtracted from the absorbance measured for the corresponding test. The IC50 values (Figures S16) were calculated using dose-response equations [nonlinear regression, log(inhibitor) vs. response-variable slope (four parameters)] built in Prism software 9 (GraphPad Software, Inc.). […]
(§3) AT-III mediated Factor-Xa inhibition assays: Anti-Factor Xa activity of mimetics (1 and 6) and UFH was determined by BIOPHENÔ ANTI-Xa (2 Stages Heparin Assay) kit following manufacturer’s instructions. […]

[3] = target: T2, platelet factor 4 (PF4) (Homo sapiens, UniProt P02776); experiment: SPR competition assay: binding of PF4 to heparin chip; details: 100 nM PF-4, 100 to 0.001 μg/mL
T2 construct: purchased Sino Biological, Inc
T2 sequence (P02776 32-101): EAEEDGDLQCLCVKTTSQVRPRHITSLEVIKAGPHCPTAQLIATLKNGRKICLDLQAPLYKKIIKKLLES
Description: (§4) A competition SPR method[32]−[34] was employed to examine the binding of compounds 1 and 6 to AT-III and PF4, and the results were compared to similar properties of UFH. First, biotinylated heparin was immobilized on a streptavidin-coated sensor chip, which was employed to establish equilibrium dissociation constants (KD) of AT-III and PF4 by employing different concentrations of these proteins as analytes (Figure S9). […] The determined KD values are in close agreement with literature reports.[34]−[36] Next, inhibition experiments were performed by premixing different concentrations of monovalent 1, tetravalent 6, and UFH with AT-III or PF4 followed by exposure to the sensor chip modified by heparin. […] The fact that tetravalent 6 does bind to PF4 supports the notion that it is a mimetic of heparin.
(§5) 6. Coagulation-related proteins SPR binding and competition studies
(§6) Coagulation-related proteins SPR binding studies: Human antithrombin-III (AT-III) was obtained from Haematologic technologies. […] Using Biacore T100 evaluation software, AT-III equilibrium dissociation constant (KD) was determined by fitting binding curves to two-state reaction model built in Biacore T100 evaluation software. For PF-4, steady-state affinity analysis was performed on the response curves of various PF-4 concentrations and KD value was calculated (Figure S9). […]

[4] = tested on: Factor-Xa; experiment: AT-III mediated Factor-Xa inhibition assay (Biophen Anti-Xa, two-stage chromogenic); type: biochemical, bovine; details: colorimetric, Biophen Anti-Xa kit
Protocol: as §1, §2, §3

[5] = target: trimeric spike glycoprotein of SARS-CoV-2; experiment: SPR competition assay: binding of SARS-CoV-2 spike trimer to heparin-immobilized sensor chip; details: 100 nM spike trimer, 25 °C, read-out: IC50, inhibition of binding of spike trimer to immobilized heparin (50% reduction in RUs)
[6] = target: T3, antithrombin-III (AT-III) (Homo sapiens, UniProt P01008); experiment: SPR competition assay: binding of AT-III to heparin chip; details: 100 nM AT-III, 100 to 0.001 μg/mL
T3 construct: purchased Haematologic technologies
T3 sequence (P01008 33-464): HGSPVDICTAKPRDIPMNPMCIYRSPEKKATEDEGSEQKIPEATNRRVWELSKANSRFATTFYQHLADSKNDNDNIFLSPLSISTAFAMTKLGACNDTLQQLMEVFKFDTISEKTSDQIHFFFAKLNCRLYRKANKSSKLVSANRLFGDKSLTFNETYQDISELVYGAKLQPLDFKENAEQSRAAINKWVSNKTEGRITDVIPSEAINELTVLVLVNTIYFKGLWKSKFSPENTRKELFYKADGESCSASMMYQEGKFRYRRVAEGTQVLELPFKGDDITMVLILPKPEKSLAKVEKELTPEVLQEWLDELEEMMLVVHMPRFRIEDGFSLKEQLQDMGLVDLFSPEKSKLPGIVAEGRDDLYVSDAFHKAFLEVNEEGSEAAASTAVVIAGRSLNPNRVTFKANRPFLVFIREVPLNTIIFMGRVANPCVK
Description: as §4, §5, §6

[7] = target: SARS-CoV-2 Wuhan RBD binding to Vero E6 cells (Severe acute respiratory syndrome coronavirus 2, UniProt P0DTC2); type: cell-based

Structure (SMILES)	Cytotoxicity on Vero E6 cells [1]	IC50, AT-III-mediated inhibition of Factor-IIa [2]	IC50, inhibition of PF4 binding to heparin surface [3]	IC50, AT-III-mediated inhibition of Factor-Xa [4] [µg/mL]	IC50 [5] [µM]	IC50, inhibition of AT-III binding to heparin surface [6]	Inhibition of trimeric RBD binding to Vero E6 cells ([7]; 125 μg/mL (62.6 μM), RBDs from Wuhan and delta)	Inhibition of Wuhan RBD binding to Vero E6 cells ([7]; RBD pretreated with 10 and 125 μg/mL compound)
NCCCCCOC1OC(COS(=O)(=O)O)C(OC2OC(C(=O)O)C(OC3OC(COS(=O)(=O)O)C(OC4OC(C(=O)O)C(OC5OC(COS(=O)(=O)O)C(OC6OC(C(=O)O)C(O)C(O)C6O)C(O)C5NS(=O)(=O)O)C(O)C4OS(=O)(=O)O)C(O)C3NS(=O)(=O)O)C(O)C2OS(=O)(=O)O)C(O)C1NS(=O)(=O)O (stereo not drawn) [Compound 1, GlcA-GlcNS6S-IdoA2S-GlcNS6S-IdoA2S-GlcNS6S]	no toxicity	failed to invoke any inhibition	no inhibition was observed	70	> 50	no inhibitory potential	failed to invoke substantial inhibition	no inhibition was detected
CC(=O)NC1C(OC2C(C(=O)O)OC(OC3C(COS(=O)(=O)O)OC(OC4C(C(=O)O)OC(OC5C(COS(=O)(=O)O)OC(OC6C(C(=O)O)OC(OC7C(COS(=O)(=O)O)OC(OCCCCCN)C(NS(=O)(=O)O)C7O)C(OS(=O)(=O)O)C6O)C(NS(=O)(=O)O)C5O)C(OS(=O)(=O)O)C4O)C(NS(=O)(=O)O)C3O)C(O)C2O)OC(Cn2cc(CCC(=O)NCCCCCOC3OC(COS(=O)(=O)O)C(OC4OC(C(=O)O)C(OC5OC(COS(=O)(=O)O)C(OC6OC(C(=O)O)C(OC7OC(COS(=O)(=O)O)C(OC8OC(C(=O)O)C(O)C(O)C8O)C(O)C7NS(=O)(=O)O)C(O)C6OS(=O)(=O)O)C(O)C5NS(=O)(=O)O)C(O)C4OS(=O)(=O)O)C(O)C3NS(=O)(=O)O)nn2)C(O)C1O (stereo not drawn) [Compound 4]					> 10			
